Measured values published in patent publication US12558326B2, “Method for treating epilepsy” (Xenon Pharmaceuticals Inc., priority 2018, dated 2026).
Where “and” joins values, the source holds several entries; their conditions need not be identical. Equal entries are not always repeated.

What was measured:
CF-1 mice = experiment: 6 Hz seizure test (44 mA, 3 sec, corneal electrodes) in vivo; parameters: species or system mouse; details: 20 mg/kg IP; for percentage of animals protected against psychomotor seizures: one hour before assay, 6 Hz 44 mA, n=16 per group
Source text: This assay tests the ability of a test compound to block a psychomotor seizure induced by long-duration, low frequency (6 Hz) stimulation, and provides an art-accepted model of therapy-resistant partial seizure (Brown et al., 1953 J. Pharmacol. Exp. Therapeut. 107(3):273-283; White H S, Woodhead J H, Wilcox K S, General principles: discovery and preclinical development of antiepileptic drugs, In: Levy R H, Mattson R H, Meldrum B S, Perucca E, editors. Antiepileptic drugs 5th ed Philadelphia: Lippincott Williams & Wilkins; 2002. pp. 36-48; Hartman et al., 2008 Epilepsia 49(2):334-339).
Methods. Adult male CF1 mice (18-25 g) are pretreated intraperitoneally (i.p.) with the test compound at a dose of 20-100 mg/kg. If toxicity is noted in a pre-test screen for toxic effects when the test compound is administered i.p. at varying dosages, the dose is modified to avoid overt toxic effects. Each treatment group (n=4-16 mice/group) is examined for anticonvulsive effects at one or more of five time points (¼, ½, 1, 2, and 4 hr) after treatment with the test compound. Following pretreatment, each mouse receives a drop of 0.5% tetracaine hydrochloride applied to each eye. The mouse is then challenged with low-frequency (6 Hz) stimulation for 3 sec delivered through corneal electrodes. The low-frequency, long-duration stimuli are initially delivered at 32 mA intensity. Animals are manually restrained and released immediately following the stimulation and observed for the presence or absence of seizure activity. If the test compound is effective in the 32 mA screen, an additional assay is performed in which the stimulation current is increased to 44 mA but otherwise using the same protocol as described above. For dose-response studies, an n of 8 mice is used per dose and a dose-response curve is generated at the time of peak effect (TPE) at the specific stimulation intensity.
Typically, the 6 Hz stimulation results in a seizure characterized by a minimal clonic phase that is followed by stereotyped, automatistic behaviors, including jaw clonus, forelimb clonus, twitching of the vibrissae, and/or Straub-tail. Animals not displaying such behaviors are considered protected. Seizure score can be used as an additional measure of the efficacy of the investigational compound (Racine, R. J. 1972 Electroencephalogr. Clin. Neurophysiol. 32(3):281-294). Data are analyzed by Mann-Whitney U test, with p<0.05 determined to be statistically significant. For data obtained at each time point, results are expressed as the total number of animals protected out of the number of animals tested over time (e.g., 2/4 represents 2 out of 4 mice tested are protected).
In this Example, the in vivo anticonvulsant effects of candidate AEDs were tested in mice using the 6 Hz seizure test. The 6 Hz seizure test was performed essentially as described above in Biological Example 2, with minor modifications as presented here, including data collection at a time point that was one hour after administration of the candidate AEDs.
Compounds: Candidate AED compounds were prepared as described above unless otherwise noted, and were as follows: • Racemic fenfluramine ([rac]-fenfluramine hydrochloride); • (R)-fenfluramine ([R]-(−)-fenfluramine hydrochloride); • Racemic norfenfluramine ([rac]-norfenfluramine) was purchased from Toronto Research Chemicals, North York, Ontario, Canada; • (R)-norfenfluramine ([R]-(−)-norfenfluramine.
Animals: Adult male CF-1 albino mice (25-35 g) purchased from Harlan-Envigo (East Millstone, NJ). The mice were housed four per cage and had access to filtered water and chow ad libitum, throughout the experiment.
Compound Preparation and Administration: All four compounds were solubilized in sterile aqueous saline solution (0.9% NaCl). Compounds were administered to animals (16 mice in each treatment group) via intraperitoneal (IP) injection at 10 ml/kg volume, one hour prior to the assay. Control animals received vehicle (saline) only. […]

[1] = Brain and plasma distribution after the 6 Hz assay (UHPLC-ESI-MS/MS); format: in vivo, mouse; details: 20 mg/kg IP, total concentration, sampled immediately after 6 Hz assay (one hour post dose)
Protocol: Pharmacological distribution and bioanalysis. Immediately following characterization of seizure behaviors in the 6 Hz assay, animals were humanely sacrificed and brain and plasma samples were collected for analysis of the distribution of the administered compounds to these tissue compartments.
Brain sample homogenization. Pre-weighed whole mouse brains were thawed and 1 mL of deionized water and 1 mL of acetonitrile were added to each sample vial containing brain tissue. The samples were homogenized using a hand-held Omni™ TH homogenizer (Omni International, Kennesaw, GA, USA) until a uniform slurry was obtained. 1 mL aliquots of the slurry were transferred to clean 1.5 mL plastic Eppendorf tubes and the tubes were centrifuged at 13,000 rpm (15,871×g) for 20 minutes. The supernatant was collected and stored in clean labelled plastic Eppendorf vials at −80° C.
Mouse plasma and brain homogenate sample preparation. Mouse brain homogenates and mouse plasma samples, as well as calibration standards and QC samples prepared from control (“blank”) untreated mouse plasma, were extracted by protein precipitation. Briefly, 50 μL of each brain homogenate and mouse plasma sample (as well as each calibration standard, QC sample and blank mouse plasma sample) was mixed with 50 μL of internal standard solution [a 2,500 ng/mL solution of (S)-5-((1-benzylpyrrolidin-3-yl)(methyl)amino)-6-methyl-N-(thiazol-4-yl)pyridine-2-sulfonamide in deionized water/acetonitrile (1:1 v/v)], followed by addition of 50 μL of 6% (v/v) phosphoric acid in water. This was followed by the addition of 200 μL of acetonitrile. The samples were vortexed for 30 seconds and then centrifuged for 20 min at 13,000 rpm (15,871×g). The supernatants were further diluted four-fold with acetonitrile:water (1:1 v/v) and transferred to a 96-well plate prior to analysis. Calibration and QC samples were prepared in blank K2EDTA mouse plasma in the concentration range from 2.3 ng/mL to 4800 ng/mL with QC samples, including low QC (14 ng/mL), mid QC (225 ng/mL), and high QC (3600 ng/mL).
UHPLC-ESI-MS/MS analysis. Samples were then analyzed by ultra-high pressure liquid chromatography/electrospray ionization tandem mass spectroscopy (UHPLC-ESI MS/MS) using a Sciex™ TQ-5500 (AB Sciex™ LP, Concord, ON, Canada) mass spectrometer equipped with a Shimadzu Nexera™ UHPLC pump, column compartment and auto-sampler (Shimadzu Scientific Instruments, Inc., Columbia, MD, USA), using a binary gradient elution starting with 80% water (A)/20% acetonitrile (B), both solvents containing 0.1% formic acid. After 0.6 minutes, mobile phase B was increased linearly to 100% to 1 minute and elution was maintained at 100% mobile phase B until 1.5 minutes, and then allowed to re-equilibrate at the initial ration of 80% mobile phase A and 20% mobile phase B for a total run time of 2.5 minutes at a flow rate of 0.4 mL/min. The column used was ACE Excel™ 2 C18-PFP (2.1 mm i.d.×[…], 2 μm particle size)(Advanced Chromatography Technologies Ltd, Aberdeen, Scotland). The analytes and the internal standard were ionized by electrospray in the positive ion mode and detected by multiple reaction monitoring (MRM) using the transitions listed in Table 1.

Structure (SMILES) | percentage of animals protected against psychomotor seizures (CF-1 mice) | protective activity against seizures in the 6 Hz psychomotor seizure assay (CF-1 mice; summary statement) | Brain concentration [1] | Plasma concentration [1]
CCNC(C)Cc1cccc(C(F)(F)F)c1 (racemic) [(rac)-fenfluramine, (R/S)—N-ethyl-1-(3-(trifluoromethyl)phenyl)propan-2-amine] | 37.5% | exhibited protective activity against seizures | 146.5 μM and 33870 ng/g | 10.74 μM and 2484 ng/g
CCN[C@H](C)Cc1cccc(C(F)(F)F)c1 [(R)-fenfluramine, (R)—N-ethyl-1-(3-(trifluoromethyl)phenyl)propan-2-amine] | 31.3% | – | 193.7 μM and 44797 ng/g | 15.02 μM and 3474 ng/g
